The values that follow come from patent US5001120A, “Use of A-Nor-steroids as malignant cells growth inhibitors” (Natural Pharmacia International, Inc., priority 1989, dated 1991).

Series [1] relates to amitotic cells of cultured hamster's ascites tumor. The following applies: Pincus and Gordon (1965); cited from earlier work.
The next series has as its system lung carcinoma (A-549). Nature of the series: In vitro ED50 against tumor cells, A-549. It is filed as cell-based. The conditions noted are these: Homo sapiens. The source says:
(§1) The procedure of Geran, R. T., et al. Cancer Chemother. Rep. (Part 3) 3,1 (1972) (see K. H. Lee et al., Planta Medica, 308, 1988), was employed to determine the in vitro ED50 dose for NPI-007 and NPI-008 against human tumor cells, including the lymphoid leukemia (L 1210), the lung carcinoma (A-549), the ileocecal carcinoma (HCT-8), and the mammary gland carcinoma (MCF-7) cell lines. These cell lines were obtained from the American Type Culture Collection (Rockville, Md.).

Series [2] concerns ileocecal carcinoma (HCT-8). Briefly: In vitro ED50 against tumor cells, HCT-8. The series is classed as cell-based. The conditions noted are these: Homo sapiens.
Source text: as §1

In a further series the test system is Lewis Lung Carcinoma. Nature of the series: In vivo Antitumor Activity Against Lewis Lung Carcinoma. On the set-up: species or system Mice (DBF1). The following applies: dosage mg × 7 Days: NPI-008 0.1, Cyclophosphamide 0.4; for Tumor Weight, 3 Days After Treatment: 10 mice, control 310 ± 51.5; for Tumor Weight, 8 Days After Treatment: 11 mice, control 772 ± 360.

Series [3] concerns lymphoid leukemia (L 1210). Nature of the series: In vitro ED50 against tumor cells, L 1210. It is filed as cell-based.
Source text: as §1

Series [4] has as its system mammary gland carcinoma (MCF-7). Briefly: In vitro ED50 against tumor cells, MCF-7. The series is classed as cell-based. The following applies: Homo sapiens.
Source text: as §1

The test system of series [5] is Ehrlich ascite tumor (ECA). Nature of the series: In vivo Tumor Growth Inhibition Assay, ECA. More on the design: species or system Swiss albino female mice. The conditions noted are these: 0.1 mg/0.05 ml into thigh muscle every other day, 5 treatments; for Inhibition %: wet tumor weight vs control; for Wet Weight of Tumor (treatment group): ± SE (n=5), control 0.4162 ± 0.0767. The source says: (§2) Swiss albino female mice of 10-12 weeks old, weighing 17-20 grams were separated into two groups.
(§3) Sarcoma-180, Ehrlich ascite tumor (ECA) and U14 cell lines were separately maintained and propagated in MEM-F12 medium supplemented with 10% FCS. The cells were detached to suspension by use of 0.25% trypsin solution. After suspension, the cells were washed once with PBS and resuspended in sample buffered solution. The cells were counted by a coulter particle counting apparatus. Cells sized from 10-100 μ were obtained for calculation of dosage.
(§4) Animals were restrained manually and 0.2 ml cell suspension containing 10^7 to 2×10^7 cells/ml for S180, U14 or ECA were injected subcutaneously in left thorax ventrally adjacent to axillae. The selected A-nor-5α-androstane (5 mg) was dissolved in 2.5 ml phosphate buffered saline (pH 7.4) solution. A solution (0.1 mg/0.05 ml) was injected into thigh muscle every other day for 5 consecutive treatments. The injection site was alternated between right and left legs. […] Control animals received injection of the same amount of PBS in a manner similar to the treated groups.
(§5) At 2 days after the last (5th) treatment, animals were sacrificed by suffocation with carbon dioxide gas. The skin over the tumor site was reflected and the tumor mass dissected free from connective tissue and weighted with an electric balance.

A further series relates to M14. Nature of the series: In vivo Tumor Growth Inhibition Assay, M14. More on the design: species or system Swiss albino female mice. The conditions noted are these: 0.1 mg/0.05 ml into thigh muscle every other day, 5 treatments; for Inhibition %: wet tumor weight vs control; for Wet Weight of Tumor (treatment group): ± SE (n=5), control 1.1413 ± 0.1225.
In another series the test system is Sarcoma-180. Briefly: In vivo Tumor Growth Inhibition Assay, S180. The conditions noted are these: 0.1 mg/0.05 ml into thigh muscle every other day, 5 treatments; for Inhibition %: wet tumor weight vs control; for Wet Weight of Tumor (treatment group): ± SE (n=5), control 2.0939 ± 0.3835. More on the design: species or system Swiss albino female mice.
Source text: as §2, §3, §4, §5

For series [6] the following is noted: experimental animals (Ku, C.P. et al., 1975); cited from earlier work.
The conditions of series [7]: cited from earlier work.
The conditions of series [8]: experimental and clinical evidence; cited from earlier work.

Converted amounts (≈) assume the structure as drawn. Counter-ions that a name gives are not always drawn. Like-named read-outs stand apart in the source and are kept apart here. Some results are limits rather than exact numbers.

On to 2α,17α-diethyl,2β-17β-diol, for which the “antiestrogenic activity (inhibition of estrogen-induced cell division)” value in [1] was “possess antiestrogenic activity”.

Consider `C#C[C@]1(O)CC[C@H]2[C@@H]3CC[C@H]4C[C@H](C(C)=O)C[C@]4(C)[C@H]3CC[C@@]21C` [2α-acetyl-17α-ethynyl-17β-ol], for which the “antiestrogenic activity (inhibition of estrogen-induced cell division)” value in series [1] is “possess antiestrogenic activity”.

Take `C#C[C@@]1(O)C[C@@H]2CC[C@@H]3[C@H](CC[C@]4(C)[C@@H](O)CC[C@@H]34)[C@@]2(C)C1` [2α-ethynyl-2β,17β-diol]: the “antiestrogenic activity (inhibition of estrogen-induced cell division)” value in [1] was “possess antiestrogenic activity”.

On to `C#C[C@@]1(O)C[C@@H]2CC[C@@H]3[C@H](CC[C@@]4(C)[C@H]3CC[C@]4(C)O)[C@@]2(C)C1` [2α-ethynyl-2β, 17β-diol-17α-methyl], for which the “antiestrogenic activity (inhibition of estrogen-induced cell division)” value in [1] is recorded as “possess antiestrogenic activity”.

Consider `COc1cccc2c1C(=O)c1c(O)c3c(c(O)c1C2=O)C[C@@](O)(C(=O)CO)C[C@@H]3O[C@H]1C[C@H](N)[C@H](O)[C@H](C)O1` [Adriamycin HCl, reference compound], for which the IC50 was 0.16 µg/mL in the series on lung carcinoma (A-549) (A549, read-out: ED50) and 0.3 µg/mL in [2] (HCT-8, read-out: ED50).

With `O=P1(N(CCCl)CCCl)NCCCO1` (stereo not shown) [Cyclophosphamide, reference compound], in the series on Lewis Lung Carcinoma, the “Tumor Weight, 3 Days After Treatment” value is listed as 130 ± 31 mg and the “Tumor Weight, 8 Days After Treatment” value came out at 500 ± 275 mg.

For the compound `C#C[C@@]1(OC(=O)CC)C[C@@H]2CC[C@@H]3[C@H](CC[C@@]4(C)[C@H]3CC[C@]4(C#C)OC(=O)CC)[C@@]2(C)C1` [NPI-007, 2α,17α-diethynyl-A-nor-5α-androstane-2β,17β-diol dipropionate], the IC50 in series [3] (L1210, read-out: ED50) was 4.5 µg/mL (≈ 10.3 µM); with lung carcinoma (A-549) (A549, read-out: ED50) it was over 10 µg/mL; in series [2] (HCT-8, read-out: ED50), 0.57 µg/mL (≈ 1.3 µM); in series [4] (MCF7, read-out: ED50), 5.9 µg/mL (≈ 13.5 µM). The values for the Inhibition % (in series [5]; with M14; in the series with Sarcoma-180) were 52.9%, 43.4% and 74.1%, respectively. For the same compound, the figures for the “Wet Weight of Tumor (treatment group)” value (in [5]; with M14; in the series with Sarcoma-180) were 0.1957 ± 0.0165 g, 0.6464 ± 0.0536 g and 0.5428 ± 0.1059 g, respectively. Besides, the anti-implantation activity result was “significant anti-implantation activity” in [6] and “significant anti-implantation activity” in series [7] (clinical trials (Hu, C. et al., 1982)). Also, the hyperestrogenic side effect result in series [7] (clinical studies (Ku, C.P. et al., 1975)) is listed as “hyperestrogenic side effect has been noted”. Moreover, in [8], the anti-fertility activity entry was “significant anti-fertility activity”.

Take `C#C[C@@]1(OC(=O)CCC(=O)O)C[C@@H]2CC[C@@H]3[C@H](CC[C@@]4(C)[C@H]3CC[C@]4(C#C)OC(=O)CCC(=O)O)[C@@]2(C)C1` [NPI-008, 2α,17α-diethynyl-A-nor-5α-androstane-2β,17β-diol disuccinate]: the IC50 in series [3] (L1210, L 1210, N = 4, read-out: ED50 (the source's name)) was 5.87 µg/mL; in the series on lung carcinoma (A-549) (A549, A-549, N = 4, read-out: ED50 (the source's name)) it was over 10 µg/mL; in series [2] (HCT-8, N = 4, read-out: ED50 (the source's name)), 0.41 µg/mL; in series [4] (MCF7, MCF-7, N = 4, read-out: ED50 (the source's name)), 7.6 µg/mL. Moreover, the Inhibition % in series [5] is given as 90.0%; with M14 it was 75.6%; with Sarcoma-180, 87.0%. The “Wet Weight of Tumor (treatment group)” value was 0.0416 ± 0.0120 g in series [5], 0.2785 ± 0.0308 g with M14 and 0.2722 ± 0.0872 g in the series with Sarcoma-180. The “Tumor Weight, 3 Days After Treatment” value in the series with Lewis Lung Carcinoma is given as 168 ± 53 mg. The “Tumor Weight, 8 Days After Treatment” value in the series on Lewis Lung Carcinoma came to 175 ± 153 mg.

Regarding `CC[C@]1(O)C[C@@H]2CN(CCc3c([nH]c4ccccc34)[C@@](C(=O)OC)(c3cc4c(cc3OC)N(C)[C@H]3[C@@](O)(C(=O)OC)[C@H](OC(C)=O)[C@]5(CC)C=CCN6CC[C@]43[C@@H]65)C2)C1` [Vinblastine sulfate, reference compound], the IC50 came out at 0.003 µg/mL with lung carcinoma (A-549) (A549, read-out: ED50) and 0.005 µg/mL in series [2] (HCT-8, read-out: ED50).

Turning to `COc1cc([C@@H]2c3cc4c(cc3[C@@H](O[C@@H]3O[C@@H]5CO[C@@H](C)O[C@H]5[C@H](O)[C@H]3O)[C@H]3COC(=O)[C@H]23)OCO4)cc(OC)c1O` [etoposide, reference compound], in series [3] (L1210, read-out: ED50), the IC50 is 1.58 µg/mL (≈ 2.68 µM).
